# Where two headings read alike, the source gives them in different places. Starred links: 1 amine or outer side, 2 acyl side, 3 side chain; linkers in the order of their positions; H or OH if unused. Positions of bridges follow the written chain, without caps; N, C: chain ends. Non-standard residues stand in square brackets, D forms with d. Residues, ends and D or L forms follow the SMILES beside them. ξ: configuration not given here. *: point of attachment. Phe(3-Cl) = N[C@@H](Cc1cccc(Cl)c1)C(=O)O; Phe(3-Me) = Cc1cccc(C[C@H](N)C(=O)O)c1; γGlu = O=C(O)[C@H](CCC(=O)[*:2])N[*:1]; 2Nal = N[C@@H](Cc1ccc2ccccc2c1)C(=O)O; βAsp = O=C(O)[C@H](CC(=O)[*:2])N[*:1]; NMeIle(3ξ) = CCC(C)[C@H](NC)C(=O)O; Tic = O=C(O)[C@@H]1Cc2ccccc2CN1; NMeD = CN[C@@H](CC(=O)O)C(=O)O; NMeL = CN[C@@H](CC(C)C)C(=O)O; Ahp(2) = CCCCC[C@H](N)C(=O)O; NMeNle = CCCC[C@H](NC)C(=O)O; Tle = CC(C)(C)[C@H](N)C(=O)O; NMeV = CN[C@H](C(=O)O)C(C)C; Carboxymethyl = O=C(O)C*; NHexGly = CCCCCCNCC(=O)O; Nle = CCCC[C@H](N)C(=O)O; Orn = NCCC[C@H](N)C(=O)O; Aun = NCCCCCCCCCCC(=O)O; AEEA = NCCOCCOCC(=O)O
# Biological target: T1, mouse VISTA (mVISTA) (Mus musculus, UniProt Q9D659)
# T1 construct: expressed in transfected cells; host or cells: Human embryonic kidney 293T cells
# T1 sequence (Q9D659 33-308): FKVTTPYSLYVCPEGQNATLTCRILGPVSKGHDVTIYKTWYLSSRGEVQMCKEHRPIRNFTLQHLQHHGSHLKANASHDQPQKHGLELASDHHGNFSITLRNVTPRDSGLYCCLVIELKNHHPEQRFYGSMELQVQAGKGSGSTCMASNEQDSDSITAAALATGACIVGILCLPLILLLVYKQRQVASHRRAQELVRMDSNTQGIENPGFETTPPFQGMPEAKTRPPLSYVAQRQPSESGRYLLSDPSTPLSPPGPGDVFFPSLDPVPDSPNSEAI
# Assay: Cell-Based Binding High-Content Assay For mVISTA (HC CBA mVISTA)
# In short: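 This high-content binding assay uses HEK293T cells expressing murine VISTA, measuring displacement of 2 nM biotinylated peptide by fluorescent streptavidin imaging. IC50 values come from four-parameter logistic fitting.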
# [1] = the 19th table, scaffold drawing 22, read-out: HC CBA mVISTA IC50
# [2] = 293T cells expressing mouse VISTA, competition with biotinylated peptide (2 nM), read-out: HC CBA mVISTA IC50
IC50 (read-out: HC CBA mVISTA IC50) [nM],Structure (SMILES),other results
26.2,CCCCCCN1CC(=O)N[C@@H](Cc2ccc(O)cc2)C(=O)N[C@@H](Cc2ccc(OCC(=O)O)cc2)C(=O)N[C@@H](CC(N)=O)C(=O)N[C@@H](CCCNC(=N)N)C(=O)N(C)[C@@H](CCCC)C(=O)N[C@@H](CCCCC)C(=O)N2CCC[C@H]2C(=O)N[C@@H](C(C)(C)C)C(=O)N[C@@H](CC(=O)O)C(=O)N[C@H](C(N)=O)CSCC(=O)N[C@@H](Cc2ccccc2)C(=O)N[C@@H](Cc2c[nH]c3ccccc23)C(=O)N[C@@H](CC(=O)O)C1=O [compound 1168] ({CH2CO}-FWD[NHexGly]YY(Carboxymethyl)NR[NMeNle][Ahp(2)]P[Tle]DC-NH2; thioether N-14),
2,CCCCCCN1CC(=O)N[C@@H](Cc2ccc(O)cc2)C(=O)N[C@@H](CC(C)C)C(=O)N[C@@H](CC(N)=O)C(=O)N[C@@H](CCCNC(=N)N)C(=O)N[C@@H](CC(C)C)C(=O)N[C@@H](CCCCC)C(=O)N2CCC[C@H]2C(=O)N[C@@H](C(C)C)C(=O)N[C@@H](C(C)C)C(=O)N[C@H](C(=O)NCC(=O)O)CSCC(=O)N[C@@H](Cc2ccccc2)C(=O)N[C@@H](Cc2cccc(C)c2)C(=O)N[C@@H](CC(=O)O)C1=O [compound 1328] ({CH2CO}-F[Phe(3-Me)]D[NHexGly]YLNRL[Ahp(2)]PVVCG-OH; thioether N-14),
11.1,CCCCCCN1CC(=O)N[C@@H](Cc2ccc(O)cc2)C(=O)N[C@@H](CC(C)C)C(=O)NCC(=O)N[C@@H](CCCNC(=N)N)C(=O)N2Cc3ccccc3C[C@H]2C(=O)N[C@@H](CCCCC)C(=O)N2CCC[C@H]2C(=O)N[C@@H](C(C)C)C(=O)N[C@@H](CO)C(=O)N[C@H](C(=O)NCC(N)=O)CSCC(=O)N[C@@H](Cc2ccccc2)C(=O)N[C@@H](Cc2ccc(O)cc2)C(=O)N[C@@H](CC(=O)O)C1=O [compound 1158] ({CH2CO}-FYD[NHexGly]YLGR[Tic][Ahp(2)]PVSCG-NH2; thioether N-14),
11.1,CCCCCCN1CC(=O)N[C@@H](Cc2ccc(O)cc2)C(=O)N[C@@H](CCCC)C(=O)N[C@@H](CC(N)=O)C(=O)N[C@@H](CCCNC(=N)N)C(=O)N(C)[C@@H](C(C)CC)C(=O)N[C@@H](CCCCC)C(=O)N2CCC[C@H]2C(=O)N[C@@H](C(C)C)C(=O)N[C@@H](CC(=O)O)C(=O)N[C@H](C(=O)NCC(=O)O)CSCC(=O)N[C@@H](Cc2ccccc2)C(=O)N[C@@H](Cc2c[nH]c3ccccc23)C(=O)N[C@@H](CC(=O)O)C1=O (some centres unmarked) [Example 1367] ({CH2CO}-FWD[NHexGly]Y[Nle]NR[NMeIle(3ξ)][Ahp(2)]PVDCG-OH; thioether N-14),

# More lines, now with the values behind:
Structure (SMILES),IC50 (read-out: HC CBA mVISTA IC50) [nM],other results
CCCCCCN1CC(=O)N[C@@H](Cc2ccc(O)cc2)C(=O)N[C@@H](CC(C)C)C(=O)N[C@@H](CC(N)=O)C(=O)N[C@@H](CCCNC(=N)N)C(=O)N[C@@H](CC(C)C)C(=O)N[C@@H](CCCCC)C(=O)N2CCC[C@H]2C(=O)N[C@@H](C(C)C)C(=O)N[C@@H](C(C)C)C(=O)N[C@H](C(=O)N[C@@H](CO)C(=O)O)CSCC(=O)N[C@@H](Cc2cccc(C)c2)C(=O)N[C@@H](Cc2ccc(O)cc2)C(=O)N[C@@H](CC(=O)O)C1=O [compound 1434] ({CH2CO}-[Phe(3-Me)]YD[NHexGly]YLNRL[Ahp(2)]PVVCS-OH; thioether N-14),,IC50 [1]: 20.4 nM
CCCCCCN1CC(=O)N[C@@H](Cc2ccc(O)cc2)C(=O)N[C@@H](CCCCN)C(=O)N[C@@H](CC(N)=O)C(=O)N[C@@H](CCCN)C(=O)N(C)[C@@H](CCCC)C(=O)N[C@@H](CCCCC)C(=O)N2CCC[C@H]2C(=O)N[C@@H](C(C)(C)C)C(=O)N[C@@H](CO)C(=O)N[C@H](C(=O)N[C@@H](CCC(=O)NCCCCCCCCCCC(=O)O)C(=O)O)CSCC(=O)N[C@@H](Cc2ccccc2)C(=O)N[C@@H](Cc2ccc(O)cc2)C(=O)N[C@@H](CC(=O)O)C1=O [Example 2139] ({CH2CO}-FYD[NHexGly]YKN[Orn][NMeNle][Ahp(2)]P[Tle]SC[γGlu][Aun]-OH; thioether N-14),45.7,
CCCCCCN1CC(=O)N[C@@H](Cc2ccc(O)cc2)C(=O)N[C@@H](CCCC)C(=O)N[C@@H](CC(N)=O)C(=O)N[C@@H](CCCNC(=N)N)C(=O)N(C)[C@@H](CC(=O)O)C(=O)N[C@@H](CCCCC)C(=O)N2CCC[C@H]2C(=O)N[C@@H](C(C)C)C(=O)N[C@@H](CC(=O)O)C(=O)N[C@H](C(=O)NCC(=O)O)CSCC(=O)N[C@@H](Cc2ccc3ccccc3c2)C(=O)N[C@@H](Cc2c[nH]c3ccccc23)C(=O)N[C@@H](CC(=O)O)C1=O [compound 1238] ({CH2CO}-[2Nal]WD[NHexGly]Y[Nle]NR[NMeD][Ahp(2)]PVDCG-OH; thioether N-14),,"IC50 (cell-based binding high-content assay, mVISTA, the 15th table, read-out: HC CBA mVISTA IC50): 25.2 nM"
CCCCCCN1CC(=O)N[C@@H](Cc2ccc(O)cc2)C(=O)N[C@@H](CC(C)C)C(=O)NCC(=O)N[C@@H](CCCNC(=N)N)C(=O)N[C@@H](Cc2ccc(O)cc2)C(=O)N[C@@H](CCCCC)C(=O)N2CCC[C@H]2C(=O)N[C@@H](C(C)C)C(=O)N[C@@H](CO)C(=O)N[C@H](C(=O)NCC(=O)O)CSCC(=O)N[C@@H](Cc2ccccc2)C(=O)N[C@@H](Cc2ccc(O)cc2)C(=O)N[C@@H](CC(=O)O)C1=O [Example 1095] ({CH2CO}-FYD[NHexGly]YLGRY[Ahp(2)]PVSCG-OH; thioether N-14),,IC50 [2]: 17.4 nM
CCCCCCN1CC(=O)N[C@@H](Cc2ccc(O)cc2)C(=O)N[C@@H](CC(C)C)C(=O)N[C@@H](CC(N)=O)C(=O)N[C@@H](CCCNC(=N)N)C(=O)N(C)[C@@H](C(C)C)C(=O)N[C@@H](CCCCC)C(=O)N2CCC[C@H]2C(=O)N[C@@H](C(C)(C)C)C(=O)N[C@@H](CC(=O)O)C(=O)N[C@H](C(=O)NCCOCCOCC(=O)N[C@@H](CCC(=O)NCCOCCOCC(=O)NCCCCCCCCCCC(=O)O)C(=O)O)CSCC(=O)N[C@@H](Cc2ccccc2)C(=O)N[C@@H](Cc2c[nH]c3ccccc23)C(=O)N[C@@H](CC(=O)O)C1=O [compound 2276] ({CH2CO}-FWD[NHexGly]YLNR[NMeV][Ahp(2)]P[Tle]DC[AEEA][γGlu][AEEA][Aun]-OH; thioether N-14),30,
CCCCCCN1CC(=O)N[C@@H](Cc2ccc(O)cc2)C(=O)N[C@@H](CC(C)C)C(=O)N[C@@H](CC(N)=O)C(=O)N[C@@H](CCCNC(=N)N)C(=O)N(C)[C@@H](CC(C)C)C(=O)N[C@@H](CCCCC)C(=O)N2CCC[C@H]2C(=O)N[C@@H](C(C)(C)C)C(=O)N[C@@H](CC(=O)O)C(=O)N[C@H](C(=O)N[C@@H](CC(=O)NCCOCCOCC(=O)N[C@@H](CC(=O)O)C(=O)NCCOCCOCC(=O)NCCCCCCCCCCC(=O)O)C(=O)O)CSCC(=O)N[C@@H](Cc2ccccc2)C(=O)N[C@@H](Cc2c[nH]c3ccccc23)C(=O)N[C@@H](CC(=O)O)C1=O [compound 2032] ({CH2CO}-FWD[NHexGly]YLNR[NMeL][Ahp(2)]P[Tle]DC[βAsp][AEEA]D[AEEA][Aun]-OH; thioether N-14),,"IC50 (cell-based binding high-content assay, mVISTA, read-out: HC CBA miPr ISTA IC50): 28.1 nM"
CCCCCCN1CC(=O)N[C@@H](Cc2ccc(O)cc2)C(=O)N[C@@H](CC(C)C)C(=O)N[C@@H](CC(N)=O)C(=O)N[C@@H](CCCNC(=N)N)C(=O)N(C)[C@@H](CCCC)C(=O)N[C@@H](CCCCC)C(=O)N2CCC[C@H]2C(=O)N[C@@H](C(C)(C)C)C(=O)N[C@@H](CO)C(=O)N[C@H](C(=O)NCC(N)=O)CSCC(=O)N[C@@H](Cc2ccccc2)C(=O)N[C@@H](Cc2cccc(Cl)c2)C(=O)N[C@@H](CC(=O)O)C1=O [compound 1339] ({CH2CO}-F[Phe(3-Cl)]D[NHexGly]YLNR[NMeNle][Ahp(2)]P[Tle]SCG-NH2; thioether N-14),31.6,
CCCCCCN1CC(=O)N[C@@H](Cc2ccc(O)cc2)C(=O)N[C@@H](CC(C)C)C(=O)N[C@@H](CC(N)=O)C(=O)N[C@@H](CCCNC(=N)N)C(=O)N[C@@H](CC(C)C)C(=O)N[C@@H](CCCCC)C(=O)N2CCC[C@H]2C(=O)N[C@@H](C(C)C)C(=O)N[C@@H](C(C)C)C(=O)N[C@H](C(=O)NCC(=O)O)CSCC(=O)N[C@@H](Cc2cccc(C)c2)C(=O)N[C@@H](Cc2c[nH]c3ccccc23)C(=O)N[C@@H](CC(=O)O)C1=O [compound 1422] ({CH2CO}-[Phe(3-Me)]WD[NHexGly]YLNRL[Ahp(2)]PVVCG-OH; thioether N-14),,IC50 [1]: 4.2 nM
CCCCCCN1CC(=O)N[C@@H](Cc2ccc(O)cc2)C(=O)N[C@@H](CCCCC)C(=O)N[C@@H](CC(N)=O)C(=O)N[C@@H](CCCNC(=N)N)C(=O)N(C)[C@@H](CCCC)C(=O)N[C@@H](CCCCC)C(=O)N2CCC[C@H]2C(=O)N[C@@H](C(C)C)C(=O)N[C@@H](CC(=O)O)C(=O)N[C@H](C(=O)N[C@@H](CO)C(=O)O)CSCC(=O)N[C@@H](Cc2cccc(C)c2)C(=O)N[C@@H](Cc2c[nH]c3ccccc23)C(=O)N[C@@H](CC(=O)O)C1=O [compound 1444] ({CH2CO}-[Phe(3-Me)]WD[NHexGly]Y[Ahp(2)]NR[NMeNle][Ahp(2)]PVDCS-OH; thioether N-14),,IC50 [1]: 13.3 nM
CCCCCCN1CC(=O)N[C@@H](Cc2ccc(O)cc2)C(=O)N[C@@H](CCCC)C(=O)N[C@@H](CC(=O)O)C(=O)N[C@@H](CCCNC(=N)N)C(=O)N[C@@H](CC(C)C)C(=O)N[C@@H](CCCCC)C(=O)N2CCC[C@H]2C(=O)N[C@@H](C(C)C)C(=O)N[C@@H](CC(N)=O)C(=O)N[C@H](C(=O)NCC(=O)O)CSCC(=O)N[C@@H](Cc2ccccc2)C(=O)N[C@@H](Cc2ccc(O)cc2)C(=O)N[C@@H](CC(=O)O)C1=O [Example 1029] ({CH2CO}-FYD[NHexGly]Y[Nle]DRL[Ahp(2)]PVNCG-OH; thioether N-14),,IC50 [2]: 1.1 nM

# — patent US20240218022A1, “ANTI-VISTA MACROCYCLIC PEPTIDES AND COMPOSITIONS” (BRISTOL-MYERS SQUIBB COMPANY, priority 2022, published 2024)
